Laboratory results from patent US12391648B2, “Pyridyloxy thioester derivative and preparation method therefor, herbicidal composition, and application” (Qingdao Kingagroot Chemical Compound Co., Ltd., priority 2018, dated 2025).

Assays:
Assay in all cases: Post-emergence test experiment (Table 3, 1000 g/ha)
Format in all cases: in vivo
Settings in all cases: post-emergence spray, after 3 weeks, fresh weight inhibition
Abutilon theophrasti = tested on: Abutilon theophrasti
How it was run: (§1)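 Weed seeds sown in soil-filled pots in greenhouse, sprayed at 2-3 leaf stage (2 weeks after sowing) with compound in acetone/tween-80 plus methyl oleate emulsible concentrate (1.5 L/ha) diluted in water. Fresh-weight growth inhibition scored after 3 weeks on 0-5 scale (5: >85%, 0: <5%).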

Digitaria sanguinalis = tested on: Digitaria sanguinalis
How it was run: as §1

Galium spurium = tested on: Galium spurium
How it was run: as §1

Leptochloa chinensis = tested on: Leptochloa chinensis
How it was run: as §1

Monochoria vaginalis = tested on: Monochoria vaginalis
How it was run: as §1

Setaria viridis = tested on: Setaria viridis
How it was run: as §1

Row | Compound | Activity level (growth inhibition rate) Abutilon theophrasti (Abutilon theophrasti) | Activity level (growth inhibition rate) Digitaria sanguinalis (Digitaria sanguinalis) | Activity level (growth inhibition rate) Galium spurium (Galium spurium) | Activity level (growth inhibition rate) Leptochloa chinensis (Leptochloa chinensis) | Activity level (growth inhibition rate) Monochoria Vaginalis (Monochoria vaginalis) | Activity level (growth inhibition rate) Setaria viridis (Setaria viridis)
1 | CCCCCCCCCCCSC(=O)C(C)Oc1nc(F)c(Cl)c(N)c1Cl (stereo not drawn) [Compound 142] | 5 (Level 5: the growth inhibition rate is greater than 85%) | 5 (Level 5: the growth inhibition rate is greater than 85%) | 5 (Level 5: the growth inhibition rate is greater than 85%) | 5 (Level 5: the growth inhibition rate is greater than 85%) | 5 (Level 5: the growth inhibition rate is greater than 85%) | 5 (Level 5: the growth inhibition rate is greater than 85%)
2 | CSC(=O)C(C)Oc1nc(F)c(Cl)c(NCc2ccccc2)c1Cl (stereo not drawn) [Compound 132] | 5 (Level 5: the growth inhibition rate is greater than 85%) | 5 (Level 5: the growth inhibition rate is greater than 85%) | 5 (Level 5: the growth inhibition rate is greater than 85%) | 5 (Level 5: the growth inhibition rate is greater than 85%) | 5 (Level 5: the growth inhibition rate is greater than 85%) | 5 (Level 5: the growth inhibition rate is greater than 85%)
3 | CCCCC(CC)CSC(=O)C(C)Oc1nc(C)c(C)c(N)c1C (stereo not drawn) [Compound 19] | 5 (Level 5: the growth inhibition rate is greater than 85%) | 5 (Level 5: the growth inhibition rate is greater than 85%) | 5 (Level 5: the growth inhibition rate is greater than 85%) | 5 (Level 5: the growth inhibition rate is greater than 85%) | 5 (Level 5: the growth inhibition rate is greater than 85%) | 5 (Level 5: the growth inhibition rate is greater than 85%)
4 | CCC(C)CCSC(=O)C(C)Oc1nc(F)c(Cl)c(N)c1Cl (stereo not drawn) [Compound 153] | 5 (Level 5: the growth inhibition rate is greater than 85%) | 5 (Level 5: the growth inhibition rate is greater than 85%) | 5 (Level 5: the growth inhibition rate is greater than 85%) | 5 (Level 5: the growth inhibition rate is greater than 85%) | 5 (Level 5: the growth inhibition rate is greater than 85%) | 5 (Level 5: the growth inhibition rate is greater than 85%)
5 | CC(Oc1nc(F)c(Cl)c(N)c1Cl)C(=O)SC(C)C(C)C (stereo not drawn) [Compound 147] | 5 (Level 5: the growth inhibition rate is greater than 85%) | 5 (Level 5: the growth inhibition rate is greater than 85%) | 5 (Level 5: the growth inhibition rate is greater than 85%) | 5 (Level 5: the growth inhibition rate is greater than 85%) | 5 (Level 5: the growth inhibition rate is greater than 85%) | 5 (Level 5: the growth inhibition rate is greater than 85%)
6 | CC(Oc1nc(F)c(Cl)c(N)c1Cl)C(=O)SC(N)=O (stereo not drawn) [Compound 100] | 5 (Level 5: the growth inhibition rate is greater than 85%) | 5 (Level 5: the growth inhibition rate is greater than 85%) | 5 (Level 5: the growth inhibition rate is greater than 85%) | 5 (Level 5: the growth inhibition rate is greater than 85%) | 5 (Level 5: the growth inhibition rate is greater than 85%) | 5 (Level 5: the growth inhibition rate is greater than 85%)
7 | CSC(=O)C(C)Oc1nc(C(F)(F)F)c(Cl)c(N)c1Cl (stereo not drawn) [Compound 6] | 5 (Level 5: the growth inhibition rate is greater than 85%) | 5 (Level 5: the growth inhibition rate is greater than 85%) | 5 (Level 5: the growth inhibition rate is greater than 85%) | 5 (Level 5: the growth inhibition rate is greater than 85%) | 5 (Level 5: the growth inhibition rate is greater than 85%) | 5 (Level 5: the growth inhibition rate is greater than 85%)
8 | CCCC(C)SC(=O)C(C)Oc1nc(F)c(Cl)c(N)c1Cl (stereo not drawn) [Compound 144] | 5 (Level 5: the growth inhibition rate is greater than 85%) | 5 (Level 5: the growth inhibition rate is greater than 85%) | 5 (Level 5: the growth inhibition rate is greater than 85%) | 5 (Level 5: the growth inhibition rate is greater than 85%) | 5 (Level 5: the growth inhibition rate is greater than 85%) | 5 (Level 5: the growth inhibition rate is greater than 85%)
9 | CCc1c(OC(C)C(=O)SC)nc(C(F)(F)F)c(CC)c1N (stereo not drawn) [Compound 8] | 5 (Level 5: the growth inhibition rate is greater than 85%) | 5 (Level 5: the growth inhibition rate is greater than 85%) | 5 (Level 5: the growth inhibition rate is greater than 85%) | 5 (Level 5: the growth inhibition rate is greater than 85%) | 5 (Level 5: the growth inhibition rate is greater than 85%) | 5 (Level 5: the growth inhibition rate is greater than 85%)
10 | CC(Oc1nc(F)c(Cl)c(N)c1Cl)C(=O)Sc1cccc(Cl)c1 (stereo not drawn) [Compound 110] | 5 (Level 5: the growth inhibition rate is greater than 85%) | 5 (Level 5: the growth inhibition rate is greater than 85%) | 5 (Level 5: the growth inhibition rate is greater than 85%) | 5 (Level 5: the growth inhibition rate is greater than 85%) | 5 (Level 5: the growth inhibition rate is greater than 85%) | 5 (Level 5: the growth inhibition rate is greater than 85%)
11 | CCCCCCC(C)SC(=O)C(C)Oc1nc(F)c(Cl)c(N)c1Cl (stereo not drawn) [Compound 135] | 5 (Level 5: the growth inhibition rate is greater than 85%) | 5 (Level 5: the growth inhibition rate is greater than 85%) | 5 (Level 5: the growth inhibition rate is greater than 85%) | 5 (Level 5: the growth inhibition rate is greater than 85%) | 5 (Level 5: the growth inhibition rate is greater than 85%) | 5 (Level 5: the growth inhibition rate is greater than 85%)
12 | CNc1c(Cl)c(F)nc(OC(C)C(=O)SC)c1Cl (stereo not drawn) [Compound 127] | 5 (Level 5: the growth inhibition rate is greater than 85%) | 5 (Level 5: the growth inhibition rate is greater than 85%) | 5 (Level 5: the growth inhibition rate is greater than 85%) | 5 (Level 5: the growth inhibition rate is greater than 85%) | 5 (Level 5: the growth inhibition rate is greater than 85%) | 5 (Level 5: the growth inhibition rate is greater than 85%)
13 | CC(Oc1nc(F)c(Cl)c(N)c1Cl)C(=O)SC/C=C/Cl (stereo not drawn) [Compound 91] | 5 (Level 5: the growth inhibition rate is greater than 85%) | 5 (Level 5: the growth inhibition rate is greater than 85%) | 5 (Level 5: the growth inhibition rate is greater than 85%) | 5 (Level 5: the growth inhibition rate is greater than 85%) | 5 (Level 5: the growth inhibition rate is greater than 85%) | 5 (Level 5: the growth inhibition rate is greater than 85%)
14 | CCCCSC(=O)C(C)Oc1nc(F)c(Cl)c(N)c1Cl (stereo not drawn) [Compound 70] | 5 (Level 5: the growth inhibition rate is greater than 85%) | 5 (Level 5: the growth inhibition rate is greater than 85%) | 5 (Level 5: the growth inhibition rate is greater than 85%) | 5 (Level 5: the growth inhibition rate is greater than 85%) | 5 (Level 5: the growth inhibition rate is greater than 85%) | 5 (Level 5: the growth inhibition rate is greater than 85%)
